Data reported in ChEMBL document CHEMBL1153550, “In vitro study of Candida tropicalis isolates exhibiting paradoxical growth in the presence of high concentrations of caspofungin” (2007).
≈ marks a conversion by molar mass, not a printed value. Calls of active or inactive are those of the source. The rule behind the calls is not given here.

Tests used:
Candida tropicalis [1] = test: Antifungal activity against > 2 x 10^7 CFU/ml Candida tropicalis isolate 9 in antibiotic medium 3 assessed as partial growth after 24 hrs by broth microdilution method; format: functional, organism-based
Candida tropicalis [2] = test: Antifungal activity against > 2 x 10^7 CFU/ml Candida tropicalis isolate 14 in RPMI 1640 medium assessed as partial growth after 24 hrs by broth microdilution method; format: functional, organism-based
Candida tropicalis [3] = test: Antifungal activity against > 2 x 10^7 CFU/ml Candida tropicalis isolate 13 in RPMI 1640 medium assessed as partial growth after 24 hrs by broth microdilution method; format: functional, organism-based
Candida tropicalis [4] = test: Antifungal activity against > 2 x 10^7 CFU/ml Candida tropicalis isolate 3 in RPMI 1640 medium assessed as partial growth after 24 hrs by broth microdilution method; format: functional, organism-based
Candida tropicalis [5] = test: Antifungal activity against 2 x 10^7 CFU/ml Candida tropicalis ATCC 750 in antibiotic medium 3 after 24 hrs by broth microdilution method; format: functional; conditions: ATCC 750, 24 h
Candida tropicalis [6] = test: Antifungal activity against 2 x 10^7 CFU/ml Candida tropicalis isolate 15 in antibiotic medium 3 after 24 hrs by broth microdilution method; format: functional; conditions: isolate 15, 24 h
Candida tropicalis [7] = test: Antifungal activity against 2 x 10^7 CFU/ml Candida tropicalis isolate 13 in antibiotic medium 3 after 24 hrs by broth microdilution method; format: functional; conditions: isolate 13, 24 h
Candida tropicalis [8] = test: Antifungal activity against 2 x 10^7 CFU/ml Candida tropicalis isolate 10 in antibiotic medium 3 after 24 hrs by broth microdilution method; format: functional; conditions: isolate 10, 24 h
Candida tropicalis [9] = test: Antifungal activity against 2 x 10^7 CFU/ml Candida tropicalis isolate 5 in antibiotic medium 3 after 24 hrs by broth microdilution method; format: functional; conditions: isolate 5, 24 h
Candida tropicalis [10] = test: Antifungal activity against 2 x 10^7 CFU/ml Candida tropicalis isolate 3 in antibiotic medium 3 after 24 hrs by broth microdilution method; format: functional; conditions: isolate 3, 24 h
Candida tropicalis [11] = test: Antifungal activity against 2 x 10^7 CFU/ml Candida tropicalis isolate 14 in RPMI 1640 medium after 24 hrs by broth microdilution method; format: functional; conditions: isolate 14, 24 h
Candida tropicalis [12] = test: Antifungal activity against 2 x 10^7 CFU/ml Candida tropicalis isolate 12 in RPMI 1640 medium after 24 hrs by broth microdilution method; format: functional; conditions: isolate 12, 24 h
Candida tropicalis [13] = test: Antifungal activity against 2 x 10^7 CFU/ml Candida tropicalis isolate 6 in RPMI 1640 medium after 24 hrs by broth microdilution method; format: functional; conditions: isolate 6, 24 h
Candida tropicalis [14] = test: Antifungal activity against 2 x 10^7 CFU/ml Candida tropicalis isolate 2 in RPMI 1640 medium after 24 hrs by broth microdilution method; format: functional; conditions: isolate 2, 24 h
Candida tropicalis [15] = test: Antifungal activity against 10^5 CFU/ml Candida tropicalis isolate 3 in RPMI 1640 medium at 12.5 ug/ml treated for 48 hrs followed by incubation in drug free medium for 48 hrs by broth microdilution method; format: functional, organism-based
Candida tropicalis [16] = test: Antifungal activity against Candida tropicalis isolate 6 in RPMI 1640 medium assessed as paradoxical growth at 6.25 ug/ml after 24 hrs by broth microdilution method; format: functional, organism-based
Candida tropicalis [17] = test: Antifungal activity against Candida tropicalis isolate 7 in RPMI 1640 medium assessed as paradoxical growth at 6.25 ug/ml after 48 hrs by broth microdilution method; format: functional, organism-based
Candida tropicalis [18] = test: Antifungal activity against Candida tropicalis isolate 15 in RPMI 1640 medium assessed as paradoxical growth at 12.5 ug/ml after 24 hrs by broth microdilution method; format: functional, organism-based
Candida tropicalis [19] = test: Antifungal activity against Candida tropicalis isolate 4 in RPMI 1640 medium assessed as paradoxical growth at 12.5 ug/ml after 48 hrs by broth microdilution method; format: functional, organism-based
Candida tropicalis [20] = test: Antifungal activity against Candida tropicalis isolate 13 in RPMI 1640 medium assessed as paradoxical growth at 12.5 ug/ml after 48 hrs by broth microdilution method; format: functional, organism-based
Candida tropicalis [21] = test: Antifungal activity against Candida tropicalis isolate 15 in RPMI 1640 medium assessed as paradoxical growth at 12.5 ug/ml after 48 hrs by broth microdilution method; format: functional, organism-based
Candida tropicalis [22] = test: Antifungal activity against 10^5 CFU/ml Candida tropicalis clinical isolate in antibiotic medium 3 treated for 24 hrs followed by incubation in drug free medium for 48 hrs by broth microdilution method; format: functional, organism-based
Candida tropicalis [23] = test: Fungistatic activity against Candida tropicalis clinical isolates at 12.5 ug/ml after 24 to 48 hrs by time-kill assay; format: functional, organism-based
Candida tropicalis [24] = test: Antifungal activity against 10^5 CFU/ml Candida tropicalis isolate 4 in RPMI 1640 medium at 0.4 to 12.5 ug/ml treated for 48 hrs followed by incubation in drug free medium for 48 hrs by broth microdilution method; format: functional, organism-based
Candida tropicalis [25] = test: Antifungal activity Candida tropicalis ATCC 750 in RPMI 1640 medium at 0.19 to 6.25 ug/ml after 24 hrs by time-kill assay; format: functional, organism-based
Candida tropicalis [26] = test: Antifungal activity against 10^5 CFU/ml Candida tropicalis isolate 8 in RPMI 1640 medium at =< 0.09 ug/ml after 24 hrs followed by incubation in drug free medium for 48 hrs by broth microdilution method; format: functional, organism-based
Candida tropicalis [27] = test: Antifungal activity against > 2 x 10^7 CFU/ml Candida tropicalis ATCC 750 in antibiotic medium 3 assessed as partial growth after 24 hrs by broth microdilution method; format: functional, organism-based
Candida tropicalis [28] = test: Antifungal activity against > 2 x 10^7 CFU/ml Candida tropicalis isolate 14 in antibiotic medium 3 assessed as partial growth after 24 hrs by broth microdilution method; format: functional, organism-based

Question: What does the source list for CC[C@H](C)C[C@H](C)CCCCCCCCC(=O)N[C@H]1C[C@@H](O)[C@@H](NCCN)NC(=O)[C@@H]2[C@@H](O)CCN2C(=O)[C@H]([C@H](O)CCN)NC(=O)[C@H]([C@H](O)[C@@H](O)c2ccc(O)cc2)NC(=O)[C@@H]2C[C@@H](O)CN2C(=O)[C@H]([C@@H](C)O)NC1=O [CASPOFUNGIN]?
Answer: Activity (Candida tropicalis [1]): inactive; Activity (Candida tropicalis [2]): inactive; Activity (Candida tropicalis [3]): inactive; Activity (Candida tropicalis [4]): inactive; MIC (Candida tropicalis [5]): 0.024 µg/mL (≈ 0.022 µM); MIC (Candida tropicalis [6]): 0.024 µg/mL (≈ 0.022 µM); MIC (Candida tropicalis [7]): 0.024 µg/mL (≈ 0.022 µM); MIC (Candida tropicalis [8]): 0.024 µg/mL (≈ 0.022 µM); MIC (Candida tropicalis [9]): 0.024 µg/mL (≈ 0.022 µM); MIC (Candida tropicalis [10]): 0.024 µg/mL (≈ 0.022 µM); MIC (Candida tropicalis [11]): 0.024 µg/mL (≈ 0.022 µM); MIC (Candida tropicalis [12]): 0.024 µg/mL (≈ 0.022 µM); MIC (Candida tropicalis [13]): 0.024 µg/mL (≈ 0.022 µM); MIC (Candida tropicalis [14]): 0.024 µg/mL (≈ 0.022 µM); Activity (Candida tropicalis [15]): inactive; Activity (Candida tropicalis [16]): inactive; Activity (Candida tropicalis [17]): Active; Activity (Candida tropicalis [18]): inactive; Activity (Candida tropicalis [19]): inactive; Activity (Candida tropicalis [20]): inactive; Activity (Candida tropicalis [21]): Active; Activity (Candida tropicalis [22]): Active; Activity (Candida tropicalis [23]): Active; Activity (Candida tropicalis [24]): inactive; Activity (Candida tropicalis [25]): Active; Activity (Candida tropicalis [26]): Active; Activity (Candida tropicalis [27]): inactive; Activity (Candida tropicalis [28]): inactive
